The record followed here is ChEMBL document CHEMBL4339211 (Bioorg Med Chem, 2019).

Common to all, as to format: functional, cell-based
The target of test [1] is T1, D(2) dopamine receptor (Homo sapiens, UniProt P14416). Description: Agonist activity at D2 receptor (unknown origin) expressed in CHOK1 cells assessed as increase in calcium flux at 10 uM incubated for 60 mins at 37 degC followed by 15 mins incubation under room temperature measured after 20 secs for 100 secs by calcium-4 dye based FLIPR assay relative to control. Background: Calcium flux is commonly read through the fluorescence of an indicator in the cells.

Test [2] deals with T1, D(2) dopamine receptor. Description: Antagonist activity at D2 receptor (unknown origin) expressed in CHOK1 cells assessed as inhibition of dopamine-induced calcium flux preincubated for 60 mins at 37 degC followed by 15 mins incubation under room temperature and subsequent dopamine addition measured after 20 secs for 100 secs by calcium-4 dye based FLIPR assay.
The target of test [3] is T2, D(1A) dopamine receptor (Homo sapiens, UniProt P21728). Put plainly: Agonist activity at D1 receptor (unknown origin) expressed in CHOK1 cells assessed as increase in cAMP accumulation at 10 uM measured after 30 mins.
The target of test [4] is T2, D(1A) dopamine receptor. Put plainly: Antagonist activity at D1 receptor (unknown origin) expressed in CHOK1 cells assessed as inhibition of SKF38393-induced cAMP accumulation measured after 30 mins.

Molecules are shown by their SMILES.

T2 sequence (P21728 whole entry): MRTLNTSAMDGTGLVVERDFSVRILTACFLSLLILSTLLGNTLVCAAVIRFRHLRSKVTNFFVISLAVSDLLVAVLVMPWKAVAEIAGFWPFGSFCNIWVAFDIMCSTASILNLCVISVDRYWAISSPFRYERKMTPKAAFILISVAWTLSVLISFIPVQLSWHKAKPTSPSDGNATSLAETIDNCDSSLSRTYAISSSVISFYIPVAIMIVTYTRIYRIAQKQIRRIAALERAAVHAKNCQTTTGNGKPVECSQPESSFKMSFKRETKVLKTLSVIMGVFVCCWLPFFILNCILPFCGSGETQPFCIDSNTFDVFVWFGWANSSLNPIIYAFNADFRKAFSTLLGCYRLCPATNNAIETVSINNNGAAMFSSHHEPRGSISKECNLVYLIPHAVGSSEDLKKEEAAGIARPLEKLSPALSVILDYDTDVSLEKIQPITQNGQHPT
T1 sequence (P14416 whole entry): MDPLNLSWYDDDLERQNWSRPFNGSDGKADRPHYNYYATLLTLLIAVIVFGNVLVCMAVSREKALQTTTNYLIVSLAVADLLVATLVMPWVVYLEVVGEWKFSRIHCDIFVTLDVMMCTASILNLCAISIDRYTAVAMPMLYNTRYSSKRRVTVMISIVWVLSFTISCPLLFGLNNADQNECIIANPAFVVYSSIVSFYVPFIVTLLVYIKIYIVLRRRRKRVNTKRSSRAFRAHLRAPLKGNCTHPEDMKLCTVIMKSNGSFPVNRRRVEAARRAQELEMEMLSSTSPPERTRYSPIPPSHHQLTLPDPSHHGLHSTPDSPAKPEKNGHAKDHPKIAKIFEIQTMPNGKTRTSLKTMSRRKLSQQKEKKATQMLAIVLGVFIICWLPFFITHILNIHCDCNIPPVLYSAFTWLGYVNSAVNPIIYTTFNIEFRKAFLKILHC

Consider `COc1cc2c(cc1OC)C1Cc3ccc(O)cc3CN1CC2` (racemic), for which the Activity at D(2) dopamine receptor [1] was 2.39%; at D(1A) dopamine receptor [3] it was -3.91%. Further, the IC50 on D(2) dopamine receptor [2] came to 1.53 µM; on D(1A) dopamine receptor [4], 6.51 µM.
For `COc1cc2c(cc1O)C1Cc3cc(OC)c(OC)cc3CN1CC2` (racemic) the same measures were 3.67%, 24.4%, 3.58 µM and over 10 µM.
`COc1cc2c(c(OC)c1O)CC1c3cc4c(cc3CCN1C2)OCO4` (racemic): the figures for the Activity on D(2) dopamine receptor [1] and on D(1A) dopamine receptor [3] were 1.29% and -5.75%, respectively. Also, the IC50 at D(2) dopamine receptor [2] was found to be 1.08 µM; on D(1A) dopamine receptor [4], 7.42 µM.
In the case of `COc1cc2c(cc1OC)C1Cc3c(cc(OC)c(O)c3OC)CN1CC2` (racemic), the Activity is 3.74% on D(2) dopamine receptor [1] and -4.17% on D(1A) dopamine receptor [3]. In addition, the half-maximal inhibitory concentration (IC50) on D(2) dopamine receptor [2] was 6.36 µM; at D(1A) dopamine receptor [4] it was over 10 µM.
For `COc1cc(/C=C/C(=O)Oc2c(OC)ccc3c2CN2CCc4cc5c(cc4C2C3)OCO5)ccc1OC(C)=O` (racemic) the same measures were 2.97%, -3.69%, 7.96 µM and over 10 µM.
As to `COc1ccc2c(c1O[C@@H]1O[C@H](CO)[C@@H](O)[C@H](O)[C@H]1O)CN1CCc3cc4c(cc3[C@@H]1C2)OCO4`, the figures for the Activity at D(2) dopamine receptor [1] and on D(1A) dopamine receptor [3] were 2.96% and -1.05%, respectively. Also, the IC50 on D(2) dopamine receptor [2] and on D(1A) dopamine receptor [4] was over 10 µM throughout.
`c1ccc(COc2cccc3c2CC2c4cc5c(cc4CCN2C3)OCO5)cc1` (racemic): the values for the Activity on D(2) dopamine receptor [1] and at D(1A) dopamine receptor [3] were 2.5% and 4.48%, respectively. Also, the IC50 on D(2) dopamine receptor [2] and on D(1A) dopamine receptor [4] was over 10 µM each time.
On to `Oc1cccc2c1CC1c3cc4c(cc3CCN1C2)OCO4` (racemic), for which the Activity on D(2) dopamine receptor [1] was found to be 2.22%; at D(1A) dopamine receptor [3] it was 1.8%. Further, the results for the IC50 on D(2) dopamine receptor [2] and at D(1A) dopamine receptor [4] were 0.19 µM and 1.03 µM, respectively.
Regarding `Oc1ccc2c(c1)CN1CCc3cc4c(cc3C1C2)OCO4` (racemic), the Activity at D(2) dopamine receptor [1] is 2.17%; on D(1A) dopamine receptor [3], -4.41%. In addition, the figures for the IC50 on D(2) dopamine receptor [2] and on D(1A) dopamine receptor [4] were 0.5 µM and 1.42 µM, respectively.
For the molecule `COc1cc2c(cc1O)CC1c3cc4c(cc3CCN1C2)OCO4` (racemic), the Activity is 3.81% on D(2) dopamine receptor [1] and -3.7% at D(1A) dopamine receptor [3]. The half-inhibitory concentration (IC50) on D(2) dopamine receptor [2] was 4.94 µM; at D(1A) dopamine receptor [4], over 10 µM.
As for `COc1ccc2c(c1O[C@@H]1O[C@H](CO)[C@@H](O)[C@H](O)[C@H]1O)CN1CCc3cc4c(cc3[C@H]1C2)OCO4`, the Activity on D(2) dopamine receptor [1] was 3.17%; on D(1A) dopamine receptor [3], -7.46%. Besides, the IC50 at D(2) dopamine receptor [2] and at D(1A) dopamine receptor [4] was over 10 µM each time.
For `COc1cc2c(cc1OC)[C@@H]1Cc3ccc(OC)c(OC)c3CN1CC2` [TETRAHYDROPALMATINE], the Activity on D(2) dopamine receptor [1] is 3.51%; on D(1A) dopamine receptor [3], -7.43%. For the same molecule, the IC50 was found to be 0.45 µM at D(2) dopamine receptor [2] and 1.63 µM at D(1A) dopamine receptor [4].
For `COc1ccc2c(c1O)CN1CCc3cc(O)c(O)cc3C1C2` (racemic) the same measures were 4.27%, -5.41%, 0.076 µM and 0.39 µM.
In the case of `COc1cc2c(cc1OC)C1Cc3ccc(OC)c(O)c3CN1CC2` (racemic), the results for the Activity on D(2) dopamine receptor [1] and on D(1A) dopamine receptor [3] were 5.52% and -4.32%, respectively. For the same molecule, the IC50 on D(2) dopamine receptor [2] is 3.11 µM; on D(1A) dopamine receptor [4], 0.41 µM.
Consider `COc1cc2c(cc1OC)C1Cc3c(cc(O)c(OC)c3OC)CN1CC2` (racemic), for which the Activity on D(2) dopamine receptor [1] turned out to be 6.88%; on D(1A) dopamine receptor [3] it was 5.95%. In addition, the results for the IC50 on D(2) dopamine receptor [2] and on D(1A) dopamine receptor [4] were 8.81 µM and over 10 µM, respectively.
As to `COc1ccc2c(c1OC(C)=O)CN1CCc3cc4c(cc3C1C2)OCO4` (racemic), the Activity is 4.5% on D(2) dopamine receptor [1] and 0% on D(1A) dopamine receptor [3]. The IC50 on D(2) dopamine receptor [2] was found to be 0.42 µM; on D(1A) dopamine receptor [4] it was 1.08 µM.
For `COc1cc2c(cc1O)CC1c3cc(OC)c(OC)cc3CCN1C2` (racemic) the same measures were 3.35%, -5.16%, 2.59 µM and 0.67 µM.
For `COc1ccc2c(c1OC)CN1CCc3cc(O)c(O)cc3C1C2` (racemic) the same measures were 2.53%, -3.17%, 0.04 µM and 0.63 µM.

What is called IC50 is the concentration at which inhibition is half-maximal.
